Patent US11053204B2, “Pyrimidinyloxy benzene derivatives as herbicides” (FMC Corporation, priority 2015, dated 2021)

Tests used:
Test in all cases: Test C postemergence, plant response rating
Assay type in all cases: in vivo
[1] = test system: barnyardgrass (Echinochloa crus-galli); conditions: for Plant response rating, Barnyardgrass: scale 0 to 100; for Barnyardgrass plant response rating: scale 0 to 100 (0 no effect, 100 complete control)
How it was run: (§1)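 Both timings shared one formulation, a non-phytotoxic solvent mixture with surfactant, and a greenhouse period of 13 to 15 d. Preemergence used seeded loam/sand or silt loam soil, postemergence used 2 to 18 cm plants; visual ratings ran from 0 (no effect) to 100 (complete control).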

[2] = test system: blackgrass (Alopecurus myosuroides); conditions: for Plant response rating, Blackgrass: scale 0 to 100; for Blackgrass plant response rating: scale 0 to 100 (0 no effect, 100 complete control)
How it was run: as §1

[3] = test system: corn (Zea mays); conditions: for Corn plant response rating: scale 0 to 100 (0 no effect, 100 complete control)
How it was run: as §1

[4] = test system: crabgrass, large (large crabgrass, Digitaria sanguinalis); conditions: for Crabgrass, Large plant response rating: scale 0 to 100 (0 no effect, 100 complete control)
How it was run: as §1

[5] = test system: galium (catchweed bedstraw, Galium aparine); conditions: for Galium plant response rating: scale 0 to 100 (0 no effect, 100 complete control)
How it was run: as §1

[6] = test system: kochia (Kochia scoparia); conditions: for Kochia plant response rating: scale 0 to 100 (0 no effect, 100 complete control)
How it was run: as §1

[7] = test system: lambsquarters (Chenopodium album); conditions: for Lambsquarters plant response rating: scale 0 to 100 (0 no effect, 100 complete control)
How it was run: as §1

[8] = test system: nutsedge, yellow (yellow nutsedge, Cyperus esculentus); conditions: for Nutsedge, Yellow plant response rating: scale 0 to 100 (0 no effect, 100 complete control)
How it was run: as §1

[9] = test system: oat, wild (wild oat Avena fatua); conditions: for Oat, Wild plant response rating: scale 0 to 100 (0 no effect, 100 complete control)
How it was run: as §1

[10] = test system: oilseed rape (Brassica napus); conditions: for Oilseed Rape plant response rating: scale 0 to 100 (0 no effect, 100 complete control)
How it was run: as §1

[11] = test system: ragweed (common ragweed, Ambrosia elatior); conditions: for Ragweed plant response rating: scale 0 to 100 (0 no effect, 100 complete control)
How it was run: as §1

[12] = test system: ryegrass, Italian (Italian ryegrass, Lolium multiflorum); conditions: for Ryegrass, Italian plant response rating: scale 0 to 100 (0 no effect, 100 complete control)
How it was run: as §1

[13] = test system: soybean (Glycine max); conditions: for Soybean plant response rating: scale 0 to 100 (0 no effect, 100 complete control)
How it was run: as §1

[14] = test system: velvetleaf (Abutilon theophrasti); conditions: for Velvetleaf plant response rating: scale 0 to 100 (0 no effect, 100 complete control)
How it was run: as §1

[15] = test system: waterhemp (common waterhemp, Amaranthus rudis); conditions: for Waterhemp plant response rating: scale 0 to 100 (0 no effect, 100 complete control)
How it was run: as §1

[16] = test system: wheat (winter wheat, Triticum aestivum); conditions: for Wheat plant response rating: scale 0 to 100 (0 no effect, 100 complete control)
How it was run: as §1

O=C(CCCC(F)(F)F)c1c(Br)cccc1Oc1ncc(Cl)cn1 [Compound 77]
Plant response rating, Barnyardgrass ([1]; 16 g ai/ha): 15
Plant response rating, Barnyardgrass ([1]; 31 g ai/ha): 25
Barnyardgrass plant response rating ([1]; 62 g ai/ha): 25
Barnyardgrass plant response rating ([1]; 125 g ai/ha): 30
Plant response rating, Blackgrass ([2]; 16 g ai/ha): 5
Plant response rating, Blackgrass ([2]; 31 g ai/ha): 20
Blackgrass plant response rating ([2]; 62 g ai/ha): 20
Blackgrass plant response rating ([2]; 125 g ai/ha): 25
Plant response rating, Corn ([3]; 16 g ai/ha, scale of 0 to 100): 15
Plant response rating, Corn ([3]; 31 g ai/ha, scale 0 to 100): 15
Corn plant response rating ([3]; 62 g ai/ha): 20
Corn plant response rating ([3]; 125 g ai/ha): 25
Plant response rating, Crabgrass, Large ([4]; 16 g ai/ha, scale of 0 to 100): 10
Plant response rating, Crabgrass, Large ([4]; 31 g ai/ha, scale 0 to 100): 25
Crabgrass, Large plant response rating ([4]; 62 g ai/ha): 30
Crabgrass, Large plant response rating ([4]; 125 g ai/ha): 30
Plant response rating, Galium ([5]; 16 g ai/ha, scale of 0 to 100): 75
Plant response rating, Galium ([5]; 31 g ai/ha, scale 0 to 100): 98
Galium plant response rating ([5]; 62 g ai/ha): 95
Galium plant response rating ([5]; 125 g ai/ha): 98
Plant response rating, Kochia ([6]; 16 g ai/ha, scale of 0 to 100): 95
Plant response rating, Kochia ([6]; 31 g ai/ha, scale 0 to 100): 100
Kochia plant response rating ([6]; 62 g ai/ha): 100
Kochia plant response rating ([6]; 125 g ai/ha): 100
Plant response rating, Lambsquarters ([7]; 16 g ai/ha, scale of 0 to 100): 55
Plant response rating, Lambsquarters ([7]; 31 g ai/ha, scale 0 to 100): 75
Lambsquarters plant response rating ([7]; 62 g ai/ha): 70
Lambsquarters plant response rating ([7]; 125 g ai/ha): 90
Plant response rating, Nutsedge, Yellow ([8]; 16 g ai/ha, scale of 0 to 100): 5
Plant response rating, Nutsedge, Yellow ([8]; 31 g ai/ha, scale 0 to 100): 10
Nutsedge, Yellow plant response rating ([8]; 62 g ai/ha): 15
Nutsedge, Yellow plant response rating ([8]; 125 g ai/ha): 15
Plant response rating, Oat, Wild ([9]; 16 g ai/ha, scale of 0 to 100): 0
Plant response rating, Oat, Wild ([9]; 31 g ai/ha, scale 0 to 100): 5
Oat, Wild plant response rating ([9]; 62 g ai/ha): 10
Oat, Wild plant response rating ([9]; 125 g ai/ha): 15
Plant response rating, Oilseed Rape ([10]; 16 g ai/ha, scale of 0 to 100): 10
Plant response rating, Oilseed Rape ([10]; 31 g ai/ha, scale 0 to 100): 70
Oilseed Rape plant response rating ([10]; 62 g ai/ha): 70
Oilseed Rape plant response rating ([10]; 125 g ai/ha): 85
Plant response rating, Ragweed ([11]; 16 g ai/ha, scale of 0 to 100): 40
Plant response rating, Ragweed ([11]; 31 g ai/ha, scale 0 to 100): 40
Ragweed plant response rating ([11]; 62 g ai/ha): 35
Ragweed plant response rating ([11]; 125 g ai/ha): 70
Plant response rating, Ryegrass, Italian ([12]; 16 g ai/ha, scale of 0 to 100): 0
Plant response rating, Ryegrass, Italian ([12]; 31 g ai/ha, scale 0 to 100): 5
Ryegrass, Italian plant response rating ([12]; 62 g ai/ha): 10
Ryegrass, Italian plant response rating ([12]; 125 g ai/ha): 10
Plant response rating, Soybean ([13]; 16 g ai/ha, scale of 0 to 100): 25
Plant response rating, Soybean ([13]; 31 g ai/ha, scale 0 to 100): 50
Soybean plant response rating ([13]; 62 g ai/ha): 70
Soybean plant response rating ([13]; 125 g ai/ha): 65
Plant response rating, Velvetleaf ([14]; 16 g ai/ha, scale of 0 to 100): 35
Plant response rating, Velvetleaf ([14]; 31 g ai/ha, scale 0 to 100): 50
Velvetleaf plant response rating ([14]; 62 g ai/ha): 55
Velvetleaf plant response rating ([14]; 125 g ai/ha): 65
Plant response rating, Waterhemp ([15]; 16 g ai/ha, scale of 0 to 100): 95
Plant response rating, Waterhemp ([15]; 31 g ai/ha, scale 0 to 100): 98
Waterhemp plant response rating ([15]; 62 g ai/ha): 100
Waterhemp plant response rating ([15]; 125 g ai/ha): 100
Plant response rating, Wheat ([16]; 16 g ai/ha, scale of 0 to 100): 0
Plant response rating, Wheat ([16]; 31 g ai/ha, scale 0 to 100): 0
Wheat plant response rating ([16]; 62 g ai/ha): 10
Wheat plant response rating ([16]; 125 g ai/ha): 30
